Laboratory results taken from patent US10106515B2, “1-(cyclopent-2-en-1-yl)-3-(2-hydroxy-3-(arylsulfonyl)phenyl)urea derivatives as CXCR2 inhibitors” (GLAXOSMITHKLINE INTELLECTUAL PROPERTY DEVELOPMENT LIMITED, priority 2014, dated 2018).
Counter-ions that a name gives are not always drawn.

target: T1, recombinant human CXCR2 (Homo sapiens, UniProt P25025); assay: CXCR2 Tango assay; format: cell-based; conditions: mean pIC50 of multiple test results; stimulated with 80 nM hCXCL1; reporter gene blue/green emission ratio; read-out: pIC50 (CXCR2 Tango assay) (converted)
T1 construct: TEV protease site; Gal4-VP16 transcription factor
T1 sequence (P25025 1-360): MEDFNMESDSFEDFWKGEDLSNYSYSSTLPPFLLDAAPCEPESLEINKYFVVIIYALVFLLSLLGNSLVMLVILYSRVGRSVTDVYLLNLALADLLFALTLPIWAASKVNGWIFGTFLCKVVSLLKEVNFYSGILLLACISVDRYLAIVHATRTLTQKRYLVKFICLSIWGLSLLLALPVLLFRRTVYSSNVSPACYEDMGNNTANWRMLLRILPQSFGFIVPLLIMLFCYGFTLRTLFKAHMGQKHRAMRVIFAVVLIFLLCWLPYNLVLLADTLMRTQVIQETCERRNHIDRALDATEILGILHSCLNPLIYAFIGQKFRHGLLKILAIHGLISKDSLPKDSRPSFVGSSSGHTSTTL
Procedure, shortened: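 A stable cell line carries human CXCR2 fused to a TEV site and Gal4-VP16, with protease-tagged arrestin. Cells (~10,000/well) were stimulated overnight at 37 °C with 80 nM hCXCL1 and a 10-point compound dilution. CCF4-AM beta-lactamase FRET (460/530 nm ratio) was read, normalized to hCXCL1 and DMSO, and mean pIC50 reported.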

| IC50 | Compound |
| --- | --- |
| ≤ 10 nM | COCC(C)(C)S(=O)(=O)c1c(Cl)ccc(NC(=O)NC2CCC=C2Cl)c1O (stereo not shown) [Compound 157, 1-(4-chloro-2-hydroxy-3-((1-methoxy-2-methylpropan-2-yl)sulfonyl)phenyl)-3-(2-chlorocyclopent-2-en-1-yl)urea] |
| ≤ 10 nM | COCCN1CCN(S(=O)(=O)c2c(Cl)ccc(NC(=O)NC3CCC=C3C)c2O)CC1 (stereo not shown) [Compound 161, 1-(4-chloro-2-hydroxy-3-((4-(2-methoxyethyl)piperazin-1-yl)sulfonyl)phenyl)-3-(2-methylcyclopent-2-en-1-yl)urea] |
| ≤ 1 nM | O=C(Nc1ccc(Cl)c(S(=O)(=O)[C@H]2C[C@@H](O)C2)c1O)N[C@@H]1CCC=C1Cl [Compound 162, 1-(4-chloro-2-hydroxy-3-((cis-3-hydroxycyclobutyl)sulfonyl)phenyl)-3-((R)-2-chlorocyclopent-2-en-1-yl)urea] |
| ≤ 10 nM | O=C(Nc1ccc(Cl)c(S(=O)(=O)[C@H]2C[C@@H](O)C2)c1O)NC1C=CCC1 (stereo partly drawn) [Compound 164, 1-(4-chloro-2-hydroxy-3-((cis-3-hydroxycyclobutyl)sulfonyl)phenyl)-3-(cyclopent-2-en-1-yl)urea] |
| ≤ 1 nM | O=C(Nc1ccc(Cl)c(S(=O)(=O)[C@H]2CCOC2)c1O)N[C@@H]1CCC=C1Cl [Compound 166, 1-(4-chloro-2-hydroxy-3-(((S)-tetrahydrofuran-3-yl)sulfonyl)phenyl)-3-((R)-2-chlorocyclopent-2-en-1-yl)urea] |
| ≤ 1 nM | O=C(Nc1ccc(Cl)c(S(=O)(=O)C2(F)CCOC2)c1O)N[C@@H]1CCC=C1Cl (stereo partly drawn) [Compound 167, 1-(4-chloro-3-((3-fluorotetrahydro-furan-3-yl)sulfonyl)-2-hydroxyphenyl)-3-((R)-2-chlorocyclopent-2-en-1-yl)urea] |
| ≤ 1 nM | O=C(Nc1ccc(Cl)c(S(=O)(=O)C2(F)CCOCC2)c1O)N[C@@H]1CCC=C1Cl [Compound 168, (R)-1-(4-chloro-3-((4-fluorotetrahydro-2H-pyran-4-yl)sulfonyl)-2-hydroxyphenyl)-3-(2-chlorocyclopent-2-en-1-yl)urea] |
| ≤ 1 nM | O=C(O)C(F)(F)F.[2H]C1(S(=O)(=O)c2c(Cl)ccc(NC(=O)N[C@@H]3CCC=C3Cl)c2O)CCN(C2CCC2)CC1 [Compound 169, (R)-1-(4-chloro-3-((1-cyclobutylpiperidin-4-yl)sulfonyl)-2-hydroxyphenyl)-3-(2-chlorocyclopent-2-en-1-yl)urea-d1, trifluoroacetic acid salt] |
| ≤ 10 nM | O=C(Nc1ccc(Cl)c(S(=O)(=O)[C@H]2C[C@H](N3CCCC3)C2)c1O)NC1C=CCC1 (stereo partly drawn) [Compound 174, 1-(4-chloro-2-hydroxy-3-((trans-3-(pyrrolidin-1-yl)cyclobutyl)sul-fonyl)phenyl)-3-(cyclopent-2-en-1-yl)urea] |
| ≤ 10 nM | O=C(Nc1ccc(Cl)c(S(=O)(=O)[C@H]2CCOC2)c1O)NC1C=CCC1 (stereo partly drawn) [Compound 175, 1-(4-chloro-2-hydroxy-3-(((S)-tetrahydrofuran-3-yl)sulfonyl)phenyl)-3-(cyclopent-2-en-1-yl)urea] |
| ≤ 10 nM | O=C(Nc1ccc(Cl)c(S(=O)(=O)C2CCOCC2)c1O)NC1C=CCC1 (stereo not shown) [Compound 176, 1-(4-chloro-2-hydroxy-3-((tetrahydro-2H-pyran-4-yl)sulfonyl)phenyl)-3-(cyclopent-2-en-1-yl)urea] |
| ≤ 10 nM | O=C(Nc1ccc(Cl)c(S(=O)(=O)[C@H]2C[C@H](N3CCCC3)C2)c1O)NC1CCC=C1Cl (stereo partly drawn) [Compound 177, 1-(4-chloro-2-hydroxy-3-((trans-3-(pyrrolidin-1-yl)cyclobutyl)sul-fonyl)phenyl)-3-(2-chlorocyclopent-2-en-1-yl)urea, trifluoroacetic acid salt] |
| ≤ 10 nM | O=C(Nc1ccc(Cl)c(S(=O)(=O)[C@H]2CC[C@H](N3CCC3)CC2)c1O)NC1CCC=C1Cl (stereo partly drawn) [Compound 178, 1-(3-((trans-4-(azetidin-1-yl)cyclohexyl)sul-fonyl)-4-chloro-2-hydroxyphenyl)-3-(2-chlorocyclopent-2-en-1-yl)urea, trifluoroacetic acid salt] |
